Reference: patent US4795751A, “5-substituted-6,8-difluoroquinolines useful as antibacterial agents” (Dainippon Pharmaceutical Co., Ltd., priority 1985, dated 1989)
≈ marks a conversion by molar mass, not a printed value.

Key:
[1] = system: Streptococcus pyogenes A65; assay: In vivo efficacy against systemic infections in mice; design: species or system Streptococcus pyogenes; male mice (ddY-S); settings: A65, 168 h, oral, intraperitoneal infection 3×10^7 cells, twice, immediately and 6 h after infection, 7 days, calculated for free base, read-out: median effective dose (ED50)
Experimental: (§1) Compounds were each dissolved in deionized water. Each of the solutions was orally administered to mice infected with each of the test organisms under the conditions shown hereinbelow, and the median effective dose (ED50) was calculated by probit analysis. The numerals in the table show ED50 (mg/kg) value, calculated for free base.
(§2) Mice: Male mice (ddY-S) weighing about 20 g
Streptococcus pyogenes A65
Intraperitoneal infection with 3×10^7 cells per mouse suspended in brain heart infusion broth.
(§3) Four times, immediately, 6, 24 and 30 hours after infection in case of Streptococcus pneumoniae 1 Neufeld. Twice, immediately and 6 hours after infection in case of other organisms.
(§4) For 14 days in case of Staphylococcus aureus 50774 and Streptocuccus pneumoniae 1 Neufeld. For 7 days in case of other organisms.

[2] = system: Pseudomonas aeruginosa 12; assay: as above; design: species or system Pseudomonas aeruginosa; male mice (ddY-S); settings: Pseudomonas aeruginosa, 12, 168 h, oral, intraperitoneal infection about 5×10^3 cells, 4% mucin, twice, immediately and 6 h after infection, 7 days, calculated for free base, read-out: median effective dose (ED50)
Experimental: as §1, §2
Pseudomonas aeruginosa 12
Intraperitoneal infection with about 5×10^3 cells per mouse suspended in tryptosoy broth with 4% mucin.
as §3, §4

M. bovis P-7101 = assay: microbe, parasite or virus in culture; assay type: cell-based; settings: Mycobacterium tuberculosis variant bovis, P7101, 20 h, read-out: minimum inhibitory concentration (MIC)
P. aeruginosa No. 12 = assay: In vitro antibacterial activity, twofold agar-dilution method; assay type: cell-based; settings: Pseudomonas aeruginosa; P. aeruginosa No. 12 (Gram -); Mueller-Hinton agar, 20 h, 37° C.; calculated for free base; read-out: minimum inhibitory concentration (MIC)
Experimental: (§5) The numbers in the table show minimum inhibitory concentrations (MIC) (μg/ml), calculated for free base. The minimum inhibitory concentration was determined by the twofold agar-dilution method, which was recommended by Japan Society of Chemotherapy (Chemotherapy, 29(1), 76(1981)), using Muller-Hinton agar. One loopful of an overnight culture of test organisms in Mueller-Hinton broth was inoculated onto 10-ml drug-containing agar layers in petri dishes. Bacterial inocula contained approximately 10^6 colonyl-formingunits. Bacterial growth was observed after 20-hour incubation at 37° C. The MIC was defined as the lowest drug concentration which prevented visible bacterial growth.

Al. faecalis P-7001 = assay: as above; assay type: cell-based; settings: Alcaligenes faecalis, P7001; Al. faecalis P-7001 (Gram -); Mueller-Hinton agar, 20 h, 37° C.; calculated for free base; read-out: minimum inhibitory concentration (MIC)
Experimental: as §5

B. subtilis PCI 219 = assay: as above; assay type: cell-based; settings: Bacillus subtilis, PCI219; B. subtilis PCI 219 (Gram +); Mueller-Hinton agar, 20 h, 37° C.; calculated for free base; read-out: minimum inhibitory concentration (MIC)
Experimental: as §5

S. aureus No. 50774 = assay: as above; assay type: cell-based; settings: Staphylococcus aureus; S. aureus No. 50774 (Gram +); Mueller-Hinton agar, 20 h, 37° C.; calculated for free base; read-out: minimum inhibitory concentration (MIC)
Experimental: as §5

S. epidermidis No. 8 = assay: as above; assay type: cell-based; settings: Staphylococcus epidermidis; S. epidermidis No. 8 (Gram +); Mueller-Hinton agar, 20 h, 37° C.; calculated for free base; read-out: minimum inhibitory concentration (MIC)
Experimental: as §5

E. coli P-51213 = assay: as above; assay type: cell-based; settings: Escherichia coli, P51213; E. coli P-51213 (Gram -); Mueller-Hinton agar, 20 h, 37° C.; calculated for free base; read-out: minimum inhibitory concentration (MIC)
Experimental: as §5

S. aureus No. 80 = assay: as above; assay type: cell-based; settings: Staphylococcus aureus; S. aureus No. 80 (Gram +); Mueller-Hinton agar, 20 h, 37° C.; calculated for free base; read-out: minimum inhibitory concentration (MIC)
Experimental: as §5

S. aureus 209P JC-1 = assay: as above; assay type: cell-based; settings: Staphylococcus aureus; S. aureus 209P JC-1 (Gram +); Mueller-Hinton agar, 20 h, 37° C.; calculated for free base; read-out: minimum inhibitory concentration (MIC)
Experimental: as §5

Ac. calcoaceticus P-6901 = assay: as above; assay type: cell-based; settings: Acinetobacter calcoaceticus, P6901; Ac. calcoaceticus P-6901 (Gram -); Mueller-Hinton agar, 20 h, 37° C.; calculated for free base; read-out: minimum inhibitory concentration (MIC)
Experimental: as §5

male mice (ddY) = assay: Acute oral toxicity in mice; settings: conclusion in words from Table 5
Experimental: (§6) A solution containing each of compounds 1, 2 and 3 of this invention in various concentrations was orally given to male mice (ddY) at a dose of 0.1 ml per 10 g of body weight. The number of dead mice was counted after 7 days, and the value of median lethal dose (LD50, mg/kg) was calculated in accordance with the Behrens-Kaerber method.

[3] = Acute oral toxicity in mice; settings: mouse, in vivo, po
Experimental: as §6

Row | SMILES | ED50 [1] | ED50 [2] | MIC (M. bovis P-7101) | MIC (P. aeruginosa No. 12) | MIC (Al. faecalis P-7001) | MIC (B. subtilis PCI 219) | MIC (S. aureus No. 50774) | MIC (S. epidermidis No. 8) | MIC (E. coli P-51213) | MIC (S. aureus No. 80) | MIC (S. aureus 209P JC-1) | MIC (Ac. calcoaceticus P-6901) | oral toxicity (male mice (ddY)) | LD50 at 168 h [3]
1 | CCn1cc(C(=O)O)c(=O)c2c(N)c(F)c(N3CCNCC3)c(F)c21 [Compound A, 5-amino-1-ethyl-6,8-difluoro-7-(1-piperazinyl)-1,4-dihydro-4-oxoquinoline-3-carboxylic acid, reference compound] | > 25 mg/kg | 15 mg/kg | 3.13 µg/mL (≈ 8.88 µM) | 0.78 µg/mL (≈ 2.21 µM) | 0.78 µg/mL (≈ 2.21 µM) | 0.39 µg/mL (≈ 1.11 µM) | 0.2 µg/mL (≈ 0.568 µM) | 0.39 µg/mL (≈ 1.11 µM) | 0.39 µg/mL (≈ 1.11 µM) | 0.2 µg/mL (≈ 0.568 µM) | 0.2 µg/mL (≈ 0.568 µM) | 0.2 µg/mL (≈ 0.568 µM) | – | –
2 | CCN1CCN(c2c(F)c(N)c3c(=O)c(C(=O)O)cn(C4CC4)c3c2F)CC1 [Compound 5, 5-Amino-1-cyclopropyl-6,8-difluoro-7-(4-ethyl-1-piperazinyl)-1,4-dihydro-4-oxoquinoline-3-carboxylic acid] | – | – | 0.39 µg/mL (≈ 0.994 µM) | 0.39 µg/mL (≈ 0.994 µM) | 0.2 µg/mL (≈ 0.51 µM) | 0.1 µg/mL (≈ 0.255 µM) | 0.025 µg/mL (≈ 0.0637 µM) | 0.05 µg/mL (≈ 0.127 µM) | 0.05 µg/mL (≈ 0.127 µM) | 0.025 µg/mL (≈ 0.0637 µM) | 0.05 µg/mL (≈ 0.127 µM) | 0.0125 µg/mL (≈ 0.0319 µM) | – | –
3 | CN1CCN(c2c(F)c(N)c3c(=O)c(C(=O)O)cn(C4CC4)c3c2F)CC1 [Compound 4, 5-Amino-1-cyclopropyl-6,8-difluoro-7-(4-methyl-1-piperazinyl)-1,4-dihydro-4-oxoquinoline-3-carboxylic acid] | – | – | 0.39 µg/mL (≈ 1.03 µM) | 0.2 µg/mL (≈ 0.529 µM) | 0.2 µg/mL (≈ 0.529 µM) | 0.1 µg/mL (≈ 0.264 µM) | 0.05 µg/mL (≈ 0.132 µM) | 0.05 µg/mL (≈ 0.132 µM) | 0.1 µg/mL (≈ 0.264 µM) | 0.025 µg/mL (≈ 0.0661 µM) | 0.1 µg/mL (≈ 0.264 µM) | 0.025 µg/mL (≈ 0.0661 µM) | – | –
4 | Nc1c(F)c(N2CCNCC2)c(F)c2c1c(=O)c(C(=O)O)cn2C1CC1 [Compound 3, 5-Amino-1-cyclopropyl-6,8-difluoro-7-(1-piperazinyl)-1,4-dihydro-4-oxoquinoline-3-carboxylic acid] | – | – | 0.39 µg/mL (≈ 1.07 µM) | 0.2 µg/mL (≈ 0.549 µM) | 0.2 µg/mL (≈ 0.549 µM) | 0.1 µg/mL (≈ 0.274 µM) | 0.05 µg/mL (≈ 0.137 µM) | 0.05 µg/mL (≈ 0.137 µM) | 0.1 µg/mL (≈ 0.274 µM) | 0.05 µg/mL (≈ 0.137 µM) | 0.05 µg/mL (≈ 0.137 µM) | 0.05 µg/mL (≈ 0.137 µM) | low oral toxicity | > 2000 mg/kg
5 | Nc1c(F)c(N2CCNC(CF)C2)c(F)c2c1c(=O)c(C(=O)O)cn2C1CC1 (stereo not drawn) [Compound 6, 5-Amino-1-cyclopropyl-6,8-difluoro--7-(3-fluoromethyl-1-piperazinyl)-1,4-dihydro-4-oxoquinoline-3-carboxylic acid] | – | – | 0.1 µg/mL (≈ 0.252 µM) | 0.2 µg/mL (≈ 0.505 µM) | 0.05 µg/mL (≈ 0.126 µM) | 0.025 µg/mL (≈ 0.0631 µM) | 0.0125 µg/mL (≈ 0.0315 µM) | 0.025 µg/mL (≈ 0.0631 µM) | 0.05 µg/mL (≈ 0.126 µM) | 0.0063 µg/mL (≈ 0.0159 µM) | 0.025 µg/mL (≈ 0.0631 µM) | 0.0063 µg/mL (≈ 0.0159 µM) | – | –
6 | CC1CN(c2c(F)c(N)c3c(=O)c(C(=O)O)cn(C4CC4)c3c2F)CC(C)N1 (stereo not drawn) [Compound 2, 5-Amino-1-cyclopropyl-6,8-difluoro-7-(3,5-dimethyl-1-piperazinyl)-1,4-dihydro-4-oxoquinoline-3-carboxylic acid] | – | – | 0.39 µg/mL (≈ 0.994 µM) | 0.2 µg/mL (≈ 0.51 µM) | 0.2 µg/mL (≈ 0.51 µM) | 0.05 µg/mL (≈ 0.127 µM) | 0.025 µg/mL (≈ 0.0637 µM) | 0.025 µg/mL (≈ 0.0637 µM) | 0.05 µg/mL (≈ 0.127 µM) | 0.0125 µg/mL (≈ 0.0319 µM) | 0.05 µg/mL (≈ 0.127 µM) | 0.0125 µg/mL (≈ 0.0319 µM) | low oral toxicity | > 2000 mg/kg
